The experiment deals with patients with chronic constipation. As to the kind of experiment: Weekly diary assessments (satisfaction with bowel habits, bothersome constipation, abdominal bloating, abdominal pain, global constipation relief) after 12 weeks, ANCOVA. It counts as in vivo, human. Particulars: for weekly diary assessments, outcome: 6-mg bid vs placebo, 12 weeks; for Bothersome abdominal bloating, LS Mean Value / Bothersome abdominal pain, LS Mean Value / Bothersome constipation, LS Mean Value / Global constipation relief, LS Mean Value / Satisfaction with bowel habit, LS Mean Value: 12-wk, tegaserod 6-mg bid, lower value = better response. How it is done: Clinical assessments. […] The primary efficacy endpoint evaluated was the increase of 1 or more CSBM/week over baseline after 4 weeks of treatment. A secondary endpoint evaluated in this genotyping study was RESP12, the increase of 1 of more CSBM/week over baseline after 12 weeks of treatment. Patients were classified as responders if they met these criteria and had completed at least 7 days of treatment. Additional secondary efficacy assessments were evaluated based on the weekly diary assessments, such as bothersome constipation, bothersome abdominal pain, and satisfaction with bowel habits at the end of the 12-week treatment period (using the baseline value as a co-variant for analysis). Additional secondary endpoints. In addition to the above assessments, 5 additional secondary efficacy endpoints were evaluated from the weekly diary assessments. These included the weekly changes in satisfaction with bowel habits, bothersome constipation, bothersome abdominal bloating, bothersome abdominal pain, and global constipation relief. TABLE 13 presents the results of analysis comparing the overall change in these parameters at the end of 12 weeks of treatment by treatment (tegaserod 6-mg bid vs. placebo) and whether they had 1 or more of the 12 “high responder” SNPs. An ANCOVA model was applied using the baseline value of these assessments as a quantitative co-variant.

Data on one compound can be found in patent US20090118350A1, “Biomarkers for Identifying Efficacy of Tegaserod in Patients with Chronic Constipation” (priority 2005, published 2009).

Each structure is given as a SMILES string.

Turning to `[H]/N=C(/NCCCCC)N/N=C/c1c[nH]c2ccc(OC)cc12` [tegaserod, Tegaserod], the “weekly diary assessments, outcome” value (all patients combined) is given as “better outcome compared to placebo”; the “weekly diary assessments, outcome” value (individuals with 1 or more of the 12 SNPs, all 5 assessments) was “significantly greater responses to tegaserod than placebo”; the “weekly diary assessments, outcome” value (individuals with none of the 12 SNPs) was “no treatment difference”. Moreover, the “Bothersome abdominal bloating, LS Mean Value” came to 2.18 (0 of 12 SNPs), 2.00 (>=1 of 12 SNPs) and 2.09 (All geno). The “Bothersome abdominal pain, LS Mean Value” (0 of 12 SNPs) is 1.90; the “Bothersome abdominal pain, LS Mean Value” (>=1 of 12 SNPs) stood at 1.77; the “Bothersome abdominal pain, LS Mean Value” (All geno) is on record as 1.84. In addition, the “Bothersome constipation, LS Mean Value” (0 of 12 SNPs) was determined as 2.25; the “Bothersome constipation, LS Mean Value” (>=1 of 12 SNPs) worked out at 1.87; the “Bothersome constipation, LS Mean Value” (All geno) is 2.07. For the same compound, the “Global constipation relief, LS Mean Value” reads like this: (0 of 12 SNPs) 2.20; (>=1 of 12 SNPs) 1.95; (All geno) 2.08. For the same compound, the “Satisfaction with bowel habit, LS Mean Value” runs as follows: (0 of 12 SNPs) 2.48; (>=1 of 12 SNPs) 2.17; (All geno) 2.33.
